Reference: US20240398774A1, “METHODS OF TREATING INFLAMMATORY DISEASES WITH A SELECTIVE GLUCOCORTICOID RECEPTOR MODULATOR” (ASTRAZENECA AB, priority 2021, published 2024)
Blank lines part the entries; values can stand above or below the compound they belong to.

Columns and labels:
[1] = test system: joint inflammation; assay: rat model of joint inflammation; format: in vivo; conditions: compared with prednisolone
[2] = test system: lipopolysaccharide (LPS)-stimulated tumour necrosis factor-α (TNFα) release; assay: ex vivo inhibition of LPS-stimulated TNFα release in human whole blood; format: cell-based; conditions: compared with prednisolone
[3] = test system: transcription of tyrosine aminotransferase (TAT); assay: TAT transcription in human hepatocytes in vitro; format: cell-based; conditions: for upregulation of transcription of tyrosine aminotransferase (TAT): human hepatocytes in vitro
[4] = Continuous Glucose Monitoring (CGM) in type 2 diabetes patients, clinical trial NCT04556760; format: in vivo, human
Description: (§1) Patient population. In clinical trial NCT04556760, eligible patients were 18 to 75 years old. Eligible patients had diagnosis of type 2 diabetes mellitus for 6 months prior to screening, such as HbAlc in the diabetes range or fasting plasma glucose 126-220 mg/dL. Eligible patients were on stable metformin therapy for at least 4 weeks, where no significant dose change (increase or decrease≥500 mg/day) has occurred prior to screening and HbAlc 6%-9.5%, or on dual therapy with metformin in combination with SGLT2i or DPP4i and HbAlc 6%-8%. Participants on dual therapy required 2 weeks wash-out of SGLT2i or DPP4i.
(§2) Study design. This was a randomized, double blind, multi-center, double dummy, and two-way cross-over study. The aim of the study was to compare the effect on glycaemic control and incretin response at equipotent doses of AZD9567 and prednisolone in diabetes patients. The AZD9567 and prednisolone doses were predicted to be equipotent, based on an ex vivo efficacy analysis from previous phase 1 studies. The study consisted of a total of three cohorts. Each cohort was treated for two 72-hour periods in a cross-over design, with a 3-week washout period between treatment periods as illustrated in FIG. 1. The total length of participant engagement (from screening to follow-up) is 79 days.
(§3) Cohort 1 included 27 patients. The patents were randomized in a ratio of 1:1 to receive 72 mg/day (oral suspension) AZD9567 and 40 mg/day prednisolone over two 72 hour periods in a cross over design: 72 mg AZD9567 for 3 consecutive days of each treatment period followed by 40 mg prednisolone for 3 consecutive days of each treatment period [AB sequence group], or 40 mg prednisolone for 3 consecutive days of each treatment period followed by 72 mg AZD9567 for 3 consecutive days of each treatment period [BA sequence group].
Cohort 2 included 8 patients. The patents were randomized in a ratio of 1:1 to receive 40 mg/day (oral suspension) AZD9567 and prednisolone over two 72 hour periods in a cross over design: 40 mg AZD9567 for 3 consecutive days of each treatment period followed by 20 mg prednisolone for 3 consecutive days of each treatment period [AB sequence group] or 20 mg prednisolone for 3 consecutive days of each treatment period followed by 40 mg AZD9567 for 3 consecutive days of each treatment period [BA sequence group].
Cohort 3 included 9 patients. The patents were randomized in a ratio of 1:1 to receive placebo and 5 mg/day prednisolone over two 72 hour periods in a cross over design: placebo for 3 consecutive days of each treatment period followed by 5 mg prednisolone for 3 consecutive days of each treatment period [AB sequence group] or 5 mg prednisolone for 3 consecutive days of each treatment period followed by placebo for 3 consecutive days of each treatment period [BA sequence group]).
CGM includes a normal diet and is reflective of daily glucose control under “real world” conditions. […]

[5] = Mixed Meal Tolerance Test (MMTT) in type 2 diabetes patients, clinical trial NCT04556760; format: in vivo, human; conditions: for MMTT-stimulated insulin secretion / glucagon secretion after MMTT: Cohort 1, Day 4
Description: as §1, §2, §3
MMTT provides a fixed composition of protein, carbohydrates and fat, and is meant to mimic “normal” meal. It generally consists of 30.2 g protein, 19.6 g of fat, 75 g of carbohydrates with 6.6. g of fiber, totaling 612 kCal. It requires a standardized dinner the night before the test, 12 h fasting prior to the test, and standardized breakfast consumed (<30 min) at 7 AM (solid meal) consisting of pre-determined quantities of carbohydrates, proteins and fats. Sampling is done at −15, 10, 20, 30, 60, 75, 120, 180, and 240 min.
The primary endpoint was change in glucose AUC (0-4 h) versus baseline compared to prednisolone following a standardized mixed meal tolerance test (MMTT) on Days −1, 4, 27, and 31. The change from baseline in glucose AUC (0-4 h) was analyzed using a mixed model repeated measures (MMRM) with baseline included as covariate. […]

[6] = test system: hypothalamic-pituitary-adrenal (HPA) axis; assay: morning serum cortisol and adrenocorticotropic hormone in type 2 diabetes patients; format: in vivo, human
Description: as §2
as §3, with “group]. […]” for “group].”

[7] = plasma pharmacokinetics in diabetic patients; format: in vivo, human; conditions: oral dosing
Description: as §2, with “days. […]” for “days.”

[8] = safety and clinical outcomes in patients; format: in vivo, human

effect on prednisolone-induced upregulation of TAT transcription ([3]; coadministered with prednisolone in primary human hepatocytes): dose-dependently reduces | upregulation of transcription of tyrosine aminotransferase (TAT) [3]: does not upregulate | elimination half-life in diabetic patients as compared to healthy volunteers in phase 1 study [7]: increased | systemic exposure in diabetic patients as compared to healthy volunteers in phase 1 study [7]: higher
Structure (SMILES): CC(C)[C@H](NC(=O)C(C)(F)F)[C@H](Oc1ccc2c(cnn2-c2ccc(=O)n(C)c2)c1)c1ccccc1 [AZD9567, 2,2-difluoro-N-[(1R,2S)-3-methyl-1-[1-(1-methyl-6-oxopyridin-3-yl)indazol-5-yl]oxy-1-phenylbutan-2-yl]propanamide]
anti-inflammatory effects in vivo in a rat model of joint inflammation [1]: similar | inhibition of LPS-stimulated TNFα release [2]: similar | increase in mean daily glucose relative to glycaemic targets for type 2 diabetes patients (70-180 mg/dl) ([4]; Cohort 1, 72 mg/day): within glycaemic targets | HbAlc difference corresponding to mean daily glucose difference between AZD9567 and prednisolone ([4]; Cohort 1, 48-72 h, based on estimated Average Glucose (eAG) equation): 0.7% | mean daily glucose increase as compared to prednisolone ([4]; Cohort 1: 72 mg/day AZD9567 vs 40 mg/day prednisolone): significantly lower | differentiation on glycaemic control versus prednisolone (CGM) ([4]; Cohort 1: 72 mg/day AZD9567 vs 40 mg/day prednisolone, 3 days): clear and consistent differentiation | HbAlc difference corresponding to mean daily glucose difference between AZD9567 and prednisolone ([4]; Cohort 2, lower dose, based on eAG equation): 0.4% | mean daily glucose increase as compared to prednisolone ([4]; Cohort 2: 40 mg/day AZD9567 vs 20 mg/day prednisolone): lower | differentiation on glycaemic control versus prednisolone (CGM) ([4]; Cohort 2: 40 mg/day AZD9567 vs 20 mg/day prednisolone, relative to Cohort 1): lower | observed difference in mean daily glucose (CGM) vs prednisolone ([4]; at 48-72 hrs, Target Value 1.221 mmol/L, Lower Reference Value 0.599 mmol/L): 1.507 mmol/L | difference in reduction of glucose AUC0-4h after MMTT (AZD9567 vs prednisolone) ([5]; Cohort 1, 24 h after last dose (Day 4), 95CI 0.01, 8.88, p=0.05): 4.54% | MMTT-stimulated insulin secretion [5]: increased | glucagon secretion after MMTT [5]: unaffected | insulin:glucagon ratio ([5]; Cohort 1, MMTT, vs prednisolone): marked improvement | absolute difference in reduction of glucose AUC0-4h after MMTT (AZD9567 vs prednisolone) ([5]; Cohort 1, 95% CI 9.40, 256.1, p=0.036): 132.95 mmol·min/L | adrenocorticotropic hormone (ACTH) concentrations ([6]; Cohort 1, change from baseline): indicative of preserved hypothalamic-pituitary-adrenal (HPA) axis capacity | cortisol change during treatment ([6]; Cohort 1, returning to baseline at follow-up): marked, target-related, reversible cortisol suppression | safety concerns following the analysis of Cohort 1 ([8]; Cohort 1, 72 mg/day for 3 days): No significant new safety concerns | rate of treatment intensification (dose increase of current oral antidiabetic therapy, or start/addition of insulin) as compared to prednisone ([8]; diagnosed diabetic patients): lower rate | incidence of hospitalization vs prednisone ([8]; heart failure patients): lower incidence | incidence of progression to type 2 diabetes mellitus as compared to prednisone ([8]; population predisposed to type 2 diabetes mellitus): lower incidence

upregulation of transcription of tyrosine aminotransferase (TAT) [3]: upregulation | systemic exposure in diabetic patients as compared to healthy volunteers in phase 1 study [7]: higher
Structure (SMILES): C[C@]12C=CC(=O)C=C1CC[C@@H]1[C@@H]2[C@@H](O)C[C@@]2(C)[C@H]1CC[C@]2(O)C(=O)CO [prednisolone, reference compound]
differentiation on glycaemic control vs placebo on CGM ([4]; Cohort 3: 5 mg/day prednisolone vs placebo): No differentiation | MMTT-stimulated insulin secretion [5]: lower | glucagon secretion after MMTT [5]: increased
